Measured values reported in patent US12391683B2, “Therapeutic compounds and methods” (Actio Biosciences, Inc., priority 2022, dated 2025).

Tests used:
[1] = biological target: T1, TRPC5 channels (Homo sapiens, UniProt Q9UL62); test: TRP Family FLIPR Assay, TRPC5; format: cell-based; conditions: HEK293 cells
T1 construct: expressed in transfected cells; host or cells: HEK293
T1 sequence (Q9UL62 1-973): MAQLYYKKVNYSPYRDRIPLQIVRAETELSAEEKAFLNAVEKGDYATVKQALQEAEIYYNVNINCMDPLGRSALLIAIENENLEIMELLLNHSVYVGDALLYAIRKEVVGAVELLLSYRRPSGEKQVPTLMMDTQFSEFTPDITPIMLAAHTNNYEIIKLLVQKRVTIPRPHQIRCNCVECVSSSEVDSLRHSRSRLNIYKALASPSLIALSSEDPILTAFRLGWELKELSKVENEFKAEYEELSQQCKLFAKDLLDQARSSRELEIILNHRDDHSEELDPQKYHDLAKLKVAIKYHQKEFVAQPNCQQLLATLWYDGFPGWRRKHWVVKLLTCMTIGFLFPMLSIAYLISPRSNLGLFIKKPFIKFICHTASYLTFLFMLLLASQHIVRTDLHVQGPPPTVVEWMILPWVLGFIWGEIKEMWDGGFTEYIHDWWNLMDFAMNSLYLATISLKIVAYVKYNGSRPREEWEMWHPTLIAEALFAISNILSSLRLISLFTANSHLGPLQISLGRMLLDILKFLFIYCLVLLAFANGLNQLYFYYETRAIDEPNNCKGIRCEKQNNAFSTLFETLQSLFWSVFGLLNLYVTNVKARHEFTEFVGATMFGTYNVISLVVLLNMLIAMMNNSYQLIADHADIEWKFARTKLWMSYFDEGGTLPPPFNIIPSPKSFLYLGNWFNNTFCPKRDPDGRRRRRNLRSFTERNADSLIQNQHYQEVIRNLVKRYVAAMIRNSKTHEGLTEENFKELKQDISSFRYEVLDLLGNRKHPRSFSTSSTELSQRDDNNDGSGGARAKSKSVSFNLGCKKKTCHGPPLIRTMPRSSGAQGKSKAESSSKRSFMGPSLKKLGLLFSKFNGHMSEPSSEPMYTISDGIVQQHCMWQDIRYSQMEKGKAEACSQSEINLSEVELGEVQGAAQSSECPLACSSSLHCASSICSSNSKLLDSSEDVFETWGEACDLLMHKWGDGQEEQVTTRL
Experimental: (§1) The compound of Example 5 was tested for selectivity against a panel of Human TRP family ion channels in a TRP Family FLIPR Assay as described below. • 1. TRPC3 channels (human TRPC3 variant 1 gene, expressed in HEK293 cells). • 2. TRPC4 channels (human TRPC4 gene, expressed in HEK293 cells). • 3. TRPC5 channels (human TRPC5 gene, expressed in HEK293 cells). • 4. TRPC6 channels (human TRPC6 gene, expressed in HEK293 cells). • 5. TRPM2 channels (human TRPM2 gene, transiently expressed in HEK293 cells). • 6. TRPM3 channels (human TRPM3 gene, transiently expressed in HEK293 cells). • 7. TRPM4 channels (human TRPM4 gene, expressed in CHO cells). • 8. […]
(§2) Data acquisition was performed via the FLIPR Control software supplied with the FLIPR System (MDS-AT) and data was analyzed using Microsoft Excel (Microsoft Corp., Redmond, WA) or GraphPad Prism. […]
(§3) [formula] where Base is the response at low concentrations of test article, Max is the maximum response at high concentrations, xhalf the EC50, or IC50, the concentration of test article producing either half-maximal activation or inhibition, and rate is the Hill coefficient. […] No assumptions about the fit parameters was made; the fit parameters were determined by the algorithm.
(§4) The effect of each test article was evaluated at eight (8) concentrations: 0.003, 0.01, 0.03, 0.1, 0.3, 1, 3 and 10 μM, n≤4 wells/concentration). […]

[2] = biological target: T2, TRPV1 channels (Homo sapiens, UniProt Q8NER1); test: TRP Family FLIPR Assay, TRPV1; format: cell-based; conditions: HEK293 cells
T2 construct: expressed in transfected cells; host or cells: HEK293
T2 sequence (Q8NER1 whole entry): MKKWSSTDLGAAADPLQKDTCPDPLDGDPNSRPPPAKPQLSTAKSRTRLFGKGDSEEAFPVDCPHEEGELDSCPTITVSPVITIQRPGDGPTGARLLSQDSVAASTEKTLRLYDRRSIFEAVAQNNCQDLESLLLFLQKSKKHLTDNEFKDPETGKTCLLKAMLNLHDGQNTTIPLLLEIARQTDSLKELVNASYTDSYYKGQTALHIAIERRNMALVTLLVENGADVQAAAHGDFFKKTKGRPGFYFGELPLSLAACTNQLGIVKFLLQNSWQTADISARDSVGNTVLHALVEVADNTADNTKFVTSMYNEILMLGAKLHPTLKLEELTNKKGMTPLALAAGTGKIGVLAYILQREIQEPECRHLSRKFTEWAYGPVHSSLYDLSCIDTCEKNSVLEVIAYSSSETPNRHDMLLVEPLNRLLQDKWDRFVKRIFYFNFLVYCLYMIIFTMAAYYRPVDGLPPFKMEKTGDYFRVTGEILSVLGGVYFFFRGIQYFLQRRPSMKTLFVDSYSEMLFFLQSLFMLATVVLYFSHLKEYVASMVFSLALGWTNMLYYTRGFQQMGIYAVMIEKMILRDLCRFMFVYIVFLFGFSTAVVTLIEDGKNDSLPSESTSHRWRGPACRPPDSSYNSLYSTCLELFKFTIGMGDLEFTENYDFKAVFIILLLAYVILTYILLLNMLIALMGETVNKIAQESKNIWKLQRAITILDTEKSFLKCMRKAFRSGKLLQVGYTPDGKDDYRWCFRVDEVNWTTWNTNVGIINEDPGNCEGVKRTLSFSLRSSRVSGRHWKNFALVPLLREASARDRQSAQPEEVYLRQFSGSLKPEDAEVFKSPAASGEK
Experimental: as §1, §2, §3, §4

CC(C)(O)c1cnc(N2C[C@@]3(CC[C@@H](F)[C@](C)(Cn4cnc5ccc(C#N)cc54)C3)OC2=O)cn1 (single isomer, unassigned) [Example 5]
> 10 µM: EC50 ([1]; agonist mode, vs EMAX of (−)-Englerin A 30 μM, read-out: EC50 hTRPC5) | IC50 ([1]; antagonist mode, activated with 0.5 μM (−)-Englerin A, 0.003-10 μM, read-out: IC50 hTRPC5) | EC50 ([2]; agonist mode, vs EMAX of capsaicin 1 μM, read-out: EC50 hTRPV1) | IC50 ([2]; antagonist mode, activated with capsaicin 0.1 μM, 0.003-10 μM, read-out: IC50 hTRPV1)
